From US20220016113A1, “?2-ADRENOCEPTOR SUBTYPE C (ALPHA-2C) ANTAGONISTS FOR THE TREATMENT OF SLEEP APNEA” (Bayer Aktiengesellschaft, priority 2018, published 2022) come the findings set out here.

The assay deals with pig model of obstructive sleep apnea (OSA). The experiment in a line: pig model of obstructive sleep apnea (OSA): upper airway collapsibility under negative pressure. The class given is in vivo, German Landrace pigs. The note with it: anaesthetized pigs. An excerpt:
The therapeutic potential of the compounds of formula (I) according to the present invention in sleep apnea has been assessed preclinically in a pig model of obstructive sleep apnea (OSA).
Using negative pressure, it is possible to induce collapse and thus obstruction of the upper respiratory tract in anaesthetized, spontaneously breathing pigs (Wirth K. J. et al., Sleep 36(5) (2013) pp. 699-708).
German Landrace pigs are used for the model. The pigs are anaesthetized and tracheotomized. Two tracheal cannulas are inserted into the trachea, one into the rostral part and the other into the caudal part of the trachea. Using a connection piece, the rostral cannula is connected to a tube to the negative pressure device and to the distal tracheal cannula. The distal tracheal cannula is additionally connected to a tube with an open end to atmosphere via a connection piece that served for free tracheal breathing, circumventing the upper airway. By appropriate opening and clamping of those tubes breathing can be switched from nasal breathing to breathing through the caudal tracheal cannula, circumventing the upper airway, and the (isolated) upper airway can be connected to the negative pressure device, causing airflow in the inspiratory direction.
At certain points in time, the collapsibility of the upper respiratory tract is tested by having the pig breathe via the caudal cannula and applying negative pressures of −50, −100 and −150 cm water head (cm H2O) to the upper respiratory tract. This causes the upper respiratory tract to collapse, which manifests itself in an interruption of the airflow and a pressure drop in the tube system. This test is conducted prior to the administration of the test substance and at certain intervals after the administration of the test substance. An appropriately effective test substance can prevent this collapse of the respiratory tract in the inspiratory phase.

For the molecule `O=C(c1cnc(N2CC3(COC3)C2)nc1)N1CCC(N2CCc3ccccc3C2)CC1` [[4-(3,4-Dihydroisoquinolin-2(1H)-yl)piperidin-1-yl][2-(2-oxa-6-azaspiro[3.3]hept-6-yl)pyrimidin-5-yl]methanone], the “inhibited upper airway collapsibility, duration” value by setting is: (i.v. bolus 0.007 mg/kg followed by i.v. infusion 0.0025 mg/kg/h for four hours, negative pressure −50 cm water head) “up to two hours”; (i.v. bolus 0.007 mg/kg followed by i.v. infusion 0.0025 mg/kg/h for four hours, negative pressure −100 cm water head) “up to 90 minutes”; (i.v. bolus 0.07 mg/kg followed by i.v. infusion 0.025 mg/kg/h for four hours, negative pressure −50 cm water head) “up to four hours”; (i.v. bolus 0.07 mg/kg followed by i.v. infusion 0.025 mg/kg/h for four hours, negative pressure −100 cm water head) “up to four hours”; (i.v. bolus 0.07 mg/kg followed by i.v. infusion 0.025 mg/kg/h for four hours, negative pressure −150 cm water head) “up to two hours”.
